Measured values from patent publication US5621010A, “Urea derivatives and their use as ACAT inhibitors” (Nisshin Flour Milling Co., Ltd., priority 1993, dated 1997).

Assays:
[1] = test system: ACAT (liver microsome fractions of male rabbits); experiment: ACAT inhibitory activity: formation of labelled cholesteryl esters from [1-14C]oleoyl-CoA and endogenous cholesterol; assay type: biochemical, rabbit; conditions: compound added at 10^-7 M
Method: The enzyme preparation, ACAT was prepared from liver microsme fractions of male rabbits according to the method of E. E. Largis et al. (Journal of Lipid Research, Vol. 30, pages 681-690, 1989). The activity was calculated by assaying the amount of the labelled cholesteryl esters formed from [1-^14 C]oleoyl-CoA and endogenous cholesterol according to the method of Kazuichi NATORI et al. (Japan J. Pharmacol., Vol. 42, pages 517-523, 1986).
The result is shown in Table 1, in which percent inhibition of the formation of the labelled cholesteryl esters with a compound added at 10^-7 M is indicated as index for the ACAT inhibitory activity.

Human LDL = experiment: Antioxidative activity: inhibition of MDA formation from LDL incubated with cupric sulfate; assay type: biochemical; conditions: compound 10^-5 M; cupric sulfate 5×10^-6 M; 5 hrs; compared with control
Method: Human LDL was incubated in the presence of cupric sulfate (5×10^-6 M) and in the presence or absence of a compound (10^-5 M) for 5 hrs. After the incubation, the peroxidation of low-density lipoproteins (LDL) is evaluated by the formation of malondialdehyde (MDA), which is a sort of lipid peroxides according to the method of Simon J. T. Mao et al. (J. Med. Chem., Vol. 34, pages 298-302, 1991). Activity of the compound is shown by percent inhibition of the MDA formation as compared with control.

Structure (SMILES)	ACAT Inhibition [1]	Antioxidant Activity (percent inhibition of the MDA formation) (Human LDL)
CC(C)(C)c1cc(CCc2ccccc2NC(=O)NCc2ccco2)cc(C(C)(C)C)c1O [Example 30, N-[2-(3,5-di-tert-butyl-4-hydroxyphenethyl)phenyl]-N'-[(2-furyl)methyl]urea]	84%	92%
CC(C)(C)c1cc(CCc2ccccc2NC(=O)NCC(C)(C)c2ccc(N3CCCC3)cc2)cc(C(C)(C)C)c1O [Example 141, N-[2-(3,5-di-tert-butyl-4-hydroxyphenethyl)phenyl]-N'-[2-[4-(1-pyrrolidinyl)phenyl]-2-methylpropyl]urea]	86%	
CN(C(=O)Nc1c(F)cc(F)cc1CCc1cc(C(C)(C)C)c(O)c(C(C)(C)C)c1)C1CCN(Cc2ccccc2)CC1 [Example 165, N-[2-(3,5-di-tert-butyl-4-hydroxyphenethyl)-4,6-difluorophenyl]-N'-(1-benzyl-4-piperidyl)-N'-methylurea]	99%	
CCCCCCCN(Cc1ccccc1)C(=O)Nc1ccccc1CCc1cc(C(C)(C)C)c(O)c(C(C)(C)C)c1 [Example 40, N-[2-(3,5-di-tert-butyl-4-hydroxyphenethyl)phenyl]-N'-benzyl-N'-heptylurea]	96%	98%
CC(C)(C)c1cc(CCc2ccccc2NC(=O)NCC(C)(C)c2ccc(Cl)c(Cl)c2)cc(C(C)(C)C)c1O [Example 77, N-[2-(3,5-di-tert-butyl-4-hydroxyphenethyl)phenyl]-N'-[2-(3,4-dichlorophenyl)-2-methylpropyl]urea]	96%	95%
CC(C)=CCCC(C)=CCNC(=O)Nc1ccccc1CCc1cc(C(C)(C)C)c(O)c(C(C)(C)C)c1 [Example 13, N-[2-(3,5-di-tert-butyl-4-hydroxyphenethyl)phenyl]-N'-(3,7-dimethyl-2,6-octadienyl)urea]	90%	92%
CC(C)(C)c1cc(CCc2ccccc2NC(=O)NC(C2CCCCC2)C2CCCCC2)cc(C(C)(C)C)c1O [Example 50, N-[2-(3,5-di-tert-butyl-4-hydroxyphenethyl)phenyl]-N'-(dicyclohexylmethyl)urea]	88%	90%
CC(C)(C)c1cc(CCc2ccccc2NC(=O)NC2CCN(Cc3ccc(F)cc3F)CC2)cc(C(C)(C)C)c1O [Example 80, N-[2-(3,5-di-tert-butyl-4-hydroxyphenethyl)phenyl]-N'-[1-(2,4-difluorobenzyl)-4-pyperidyl]urea]	92%	96%
CC(C)(C)c1cc(CCc2ccccc2NC(=O)NC2CCCCCC2)cc(C(C)(C)C)c1O [Example 4, N-[2-(3,5-di-tert-butyl-4-hydroxyphenethyl)phenyl]-N'-cycloheptylurea]	95%	98%
CC(C)(C)c1cc(/C=C/c2ccccc2NC(=O)N2CCC[C@H]3CCCC[C@H]32)cc(C(C)(C)C)c1O (relative stereo) [Example 159]	97%	
CC(C)(C)c1cc(CCc2cc(F)cc(F)c2NC(=O)NC2CCN(Cc3ccccc3)CC2)cc(C(C)(C)C)c1O.Cl [Example 167, N-[2-(3,5-di-tert-butyl-4-hydroxyphenethyl)-4,6-difluorophenyl]-N'-(1-benzyl-4-piperidyl)urea hydrochloride]	100%	
CN(C)c1ccc(CCNC(=O)Nc2ccccc2CCc2cc(C(C)(C)C)c(O)c(C(C)(C)C)c2)cc1 [Example 75, N-[2-(3,5-di-tert-butyl-4-hydroxyphenethyl)phenyl]-N'-(4-dimethylaminophenethyl)urea]	88%	95%
CC(C)(C)c1cc(CCc2ccccc2NC(=O)N2CCN(Cc3ccccc3)CC2)cc(C(C)(C)C)c1O [Example 114, 1-Benzyl-4-[N-[2-(3,5-di-tert-butyl-4-hydroxyphenethyl)phenyl]carbamoyl]piperazine]	82%	98%
CN1CC2CC(NC(=O)Nc3ccccc3CCc3cc(C(C)(C)C)c(O)c(C(C)(C)C)c3)CC(C1)N2C (centres unmarked) [Example 39, N-[2-(3,5-di-tert-butyl-4-hydroxyphenethyl)phenyl]-N'-(3,9-dimethyl-3,9-diazabicyclo[3.3.1]-7-nonyl)urea]	88%	87%
CC(C)(C)c1cc(CCc2ccccc2NC(=O)N[C@H](C(=O)OCc2ccccc2)c2ccccc2)cc(C(C)(C)C)c1O [Example 173, (S)-N-[2-(3,5-di-tert-butyl-4-hydroxyphenethyl)phenyl]-N'-(α-benzyloxycarbonyl)benzylurea]	95%	
CC(C)(C)c1cc(CCc2ccccc2NC(=O)NCC(c2ccccc2)c2ccccc2)cc(C(C)(C)C)c1O [Example 6, N-[2-(3,5-di-tert-butyl-4-hydroxyphenethyl)phenyl]-N'-(2,2-diphenylethyl)urea]	99%	98%
CCSCCNC(=O)Nc1ccccc1CCc1cc(C(C)(C)C)c(O)c(C(C)(C)C)c1 [Example 38, N-[2-(3,5-di-tert-butyl-4-hydroxyphenethyl)phenyl]-N'-(2-ethylthioethyl)urea]	71%	94%
CC(C)(C)c1cc(CCc2ccccc2NC(=O)NCC(C)(C)c2ccc(F)cc2)cc(C(C)(C)C)c1O [Example 140, N-[2-(3,5-di-tert-butyl-4-hydroxyphenethyl)phenyl]-N'-[2-(4-fluorophenyl)-2-methylpropyl]urea]	96%	
CC(C)(C)CC(C)(C)NC(=O)Nc1ccccc1CCc1cc(C(C)(C)C)c(O)c(C(C)(C)C)c1 [Example 14, N-[2-(3,5-di-tert-butyl-4-hydroxyphenethyl)phenyl]-N'-(2,4,4-trimethyl-2-pentyl)urea]	93%	98%
COc1cccc(CCc2cc(C(C)(C)C)c(O)c(C(C)(C)C)c2)c1NC(=O)NC1CCN(Cc2ccccc2)CC1 [Example 163, N-[2-(3,5-di-tert-butyl-4-hydroxyphenethyl)-6-methoxyphenyl]-N'-(1-benzyl-4-piperidyl)urea]	81%	
CC(C)(C)c1cc(CCc2ccccc2NC(=O)NC2CCCC2)cc(C(C)(C)C)c1O [Example 16, N-[2-(3,5-di-tert-butyl-4-hydroxyphenethyl)phenyl]-N'-cyclopentylurea]	93%	95%
CC(C)(C)c1cc(CCc2ccccc2NC(=O)NCC2CCCCC2)cc(C(C)(C)C)c1O [Example 90, N-[2-(3,5-di-tert-butyl-4-hydroxyphenethyl)phenyl]-N'-(cyclohexylmethyl)urea]	92%	93%
CN(C(=O)Nc1ccccc1CCc1cc(C(C)(C)C)c(O)c(C(C)(C)C)c1)C1CCCCC1 [Example 43, N-[2-(3,5-di-tert-butyl-4-hydroxyphenethyl)phenyl]-N'-cyclohexyl-N'-methylurea]	99%	99%
CCCN(C(=O)Nc1ccccc1CCc1cc(C(C)(C)C)c(O)c(C(C)(C)C)c1)C1CCN(Cc2ccccc2)CC1 [Example 146, N-[2-(3,5-di-tert-butyl-4-hydroxyphenethyl)phenyl]-N'-(1-benzyl-4-piperidyl)-N'-propylurea]	85%	
CCCCCCCN(C)C(=O)Nc1ccccc1CCc1cc(C(C)(C)C)c(O)c(C(C)(C)C)c1 [Example 41, N-[2-(3,5-di-tert-butyl-4-hydroxyphenethyl)phenyl]-N'-heptyl-N'-methylurea]	97%	99%
CC1(C)CCCN(C(=O)Nc2ccccc2CCc2cc(C(C)(C)C)c(O)c(C(C)(C)C)c2)C1 [Example 177, 1-[N-[2-(3,5-di-tert-butyl-4-hydroxyphenethyl)phenyl]carbamoyl]-3,3-dimethylpiperidine]	98%	
CC(C)(C)c1cc(CCc2cc(F)cc(F)c2NC(=O)N2CCC[C@H]3CCCC[C@H]32)cc(C(C)(C)C)c1O (relative stereo) [Example 166]	100%	
Cc1cccc(CCc2cc(C(C)(C)C)c(O)c(C(C)(C)C)c2)c1NC(=O)NC1CCN(Cc2ccccc2)CC1 [Example 168, N-[2-(3,5-di-tert-butyl-4-hydroxyphenethyl)-6-methylphenyl]-N'-(1-benzyl-4-piperidyl)urea]	93%	
CC(C)(C)c1cc(CCc2ccc(Cl)cc2NC(=O)NC2CCN(Cc3ccccc3)CC2)cc(C(C)(C)C)c1O [Example 183, N-[2-(3,5-di-tert-butyl-4-hydroxyphenethyl)-5-chlorophenyl]-N'-(1-benzyl-4-piperidyl)urea]	91%	
CC(C)(C)c1cc(CCc2c(F)cccc2NC(=O)NC2CCN(Cc3ccccc3)CC2)cc(C(C)(C)C)c1O [Example 155, N-[2-(3,5-di-tert-butyl-4-hydroxyphenethyl)-3-fluorophenyl]-N'-(1-benzyl-4-piperidyl)urea]	94%	
